Test results from patent publication US5235061A, “Fungicidal (1H-1,2,4-triazolyl)disilaalkanes” (priority 1991, dated 1993).

Tests used:
Assay in all cases: In vitro percent disease control (radii of spore growth on agar)
Type in all cases: cell-based
Glomerella cingulata = details: Colletotrichum gloeosporioides, read-out: % controlled, Glo.
Protocol: (§1) The compounds of this invention were dissolved respectively in acetone in an amount equal to 10% of the final volume and then in purified water at the concentration of 100 ppm and 50 ppm.
(§2) Each of the solution was mixed with potato-sucrose-agar medium in a 6" petri dish and one of the fungi was spotted at the center of the dish. The dish was incubated in growth room for several days. The percent disease control was derived from the radii of spore growth. The screening tests in vitro condition are well-known to those skilled in the art.
(§3) The following fungi were used for the screening.
5) Glo.; Glomerella cingulata

Botry tris cinerea = details: read-out: % controlled, Bo ci.
Protocol: as §1, §2, §3
10) Bo.ci.; Botry tris cinerea

Alternaria mali = details: Alternaria mali, read-out: % controlled, Al.
Protocol: as §1, §2, §3

Rhizopus sp. = details: Rhizopus, read-out: % controlled, Rhi. sp.
Protocol: as §1, §2, §3

[1] = system: Botryosphaeria dothidea Macrophoma sp.; details: Botryosphaeria dothidea, read-out: % controlled, Bo.do (Ma.)
Protocol: as §1, §2, §3
4) Bo.do(Ma); Botryosphaeria dothidea Macrophoma sp.

Phytophthora capsisi = details: Phytophthora, read-out: % controlled, Phy ca.
Protocol: as §1, §2, §3
2) Phy. ca.; Phytophthora capsisi

Fusarium moniliforme = system: Fusarium moniliforme
Protocol: as §1, §2, §3
8) Fu.mo.; Fusarium moniliforme

Physalospora baccae = details: read-out: % controlled, Phy ba.
Protocol: as §1, §2, §3
3) Phy. ba.; Physalospora baccae

Pyricalaria oryzae = details: for inhibition of growth at 50 ppm: read-out: % controlled, Py. or., 50 ppm; for inhibition of growth at 100 ppm: read-out: % controlled, Py. or., 100 ppm
Protocol: as §1, §2, §3
6) Py.or.; Pyricalaria oryzae

Rhizoctonia solani = details: Rhizoctonia solani, read-out: % controlled, Rhy. so.
Protocol: as §1, §2, §3
7) Rhi.so.; Rhizoctonia solani

Question: Which inhibition of growth at 50 ppm (Glomerella cingulata) does the source give for `C=CC[Si](C[Si](C)(Cn1cncn1)c1ccc(F)cc1)(c1ccccc1)c1ccc(-c2ccccc2)cc1` (stereo not drawn) here?
Answer: 100%

Question: What about the inhibition of growth at 100 ppm (Glomerella cingulata) of the same molecule?
Answer: 100%

Question: What about the inhibition of growth at 50 ppm (Botry tris cinerea) of the same molecule?
Answer: 86%

Question: What about the inhibition of growth at 100 ppm (Botry tris cinerea) of the same molecule?
Answer: 100%

Question: And the inhibition of growth at 50 ppm (Alternaria mali)?
Answer: 78%

Question: What about the inhibition of growth at 100 ppm (Alternaria mali) of the same molecule?
Answer: 100%

Question: What about the inhibition of growth at 50 ppm (Rhizopus sp.) of the same molecule?
Answer: 100%

Question: What about the inhibition of growth at 100 ppm (Rhizopus sp.) of the same molecule?
Answer: 100%

Question: And the inhibition of growth at 50 ppm [1]?
Answer: 100%

Question: And the inhibition of growth at 100 ppm [1]?
Answer: 100%

Question: What about the inhibition of growth at 50 ppm (Phytophthora capsisi) of the same molecule?
Answer: 27%

Question: And the inhibition of growth at 100 ppm (Phytophthora capsisi)?
Answer: 50%

Question: What about the “% controlled, Fu. mo.” value (Fusarium moniliforme; 50 ppm) of the same molecule?
Answer: 100%

Question: What about the “% controlled, Fu. mo.” value (Fusarium moniliforme; 100 ppm) of the same molecule?
Answer: 100%

Question: What about the inhibition of growth at 50 ppm (Physalospora baccae) of the same molecule?
Answer: 100%

Question: What about the inhibition of growth at 100 ppm (Physalospora baccae) of the same molecule?
Answer: 100%

Question: And the inhibition of growth at 50 ppm (Pyricalaria oryzae)?
Answer: 85%

Question: What about the inhibition of growth at 100 ppm (Pyricalaria oryzae) of the same molecule?
Answer: 100%

Question: What does the source list for `C=CC[Si](CC=C)(Cn1cncn1)C[Si](CC=C)(CC=C)c1ccccc1` [6-phenyl-4,6-bis(2-propenyl)-4,6-disila-4-(1H-1,2,4-triazol-1-ylmethyl)-1,8-nonadiene]?
Answer: inhibition of growth at 50 ppm (Glomerella cingulata): 70%; inhibition of growth at 100 ppm (Glomerella cingulata): 87%; inhibition of growth at 50 ppm (Botry tris cinerea): 80%; inhibition of growth at 100 ppm (Botry tris cinerea): 96%; inhibition of growth at 50 ppm (Alternaria mali): 75%; inhibition of growth at 100 ppm (Alternaria mali): 79%; inhibition of growth at 50 ppm (Rhizopus sp.): 50%; inhibition of growth at 100 ppm (Rhizopus sp.): 50%; inhibition of growth at 50 ppm [1]: 65%; inhibition of growth at 100 ppm [1]: 70%; inhibition of growth at 50 ppm (Phytophthora capsisi): 60%; inhibition of growth at 100 ppm (Phytophthora capsisi): 70%; % controlled, Fu. mo. (Fusarium moniliforme; 50 ppm): 46%; % controlled, Fu. mo. (Fusarium moniliforme; 100 ppm): 46%; inhibition of growth at 50 ppm (Physalospora baccae): 60%; inhibition of growth at 100 ppm (Physalospora baccae): 69%; inhibition of growth at 50 ppm (Pyricalaria oryzae): 60%; inhibition of growth at 100 ppm (Pyricalaria oryzae): 90%

Question: What does the source list for `C=CC[Si](C)(Cn1cncn1)C[Si](CC=C)(c1ccc(OCC)cc1)c1ccc(OCC)cc1` (stereo not drawn) [6,6-bis(4-ethoxyphenyl)-4-methyl-4,6-disila-4-(1H-1,2,4-triazol-1-ylmethyl)-1,8-nonadiene]?
Answer: inhibition of growth at 50 ppm (Glomerella cingulata): 100%; inhibition of growth at 100 ppm (Glomerella cingulata): 100%; inhibition of growth at 50 ppm (Botry tris cinerea): 100%; inhibition of growth at 100 ppm (Botry tris cinerea): 100%; inhibition of growth at 50 ppm (Alternaria mali): 100%; inhibition of growth at 100 ppm (Alternaria mali): 100%; inhibition of growth at 50 ppm (Rhizopus sp.): 80%; inhibition of growth at 100 ppm (Rhizopus sp.): 80%; inhibition of growth at 50 ppm [1]: 70%; inhibition of growth at 100 ppm [1]: 72%; inhibition of growth at 50 ppm (Phytophthora capsisi): 55%; inhibition of growth at 100 ppm (Phytophthora capsisi): 60%; inhibition of growth at 50 ppm (Rhizoctonia solani): 100%; inhibition of growth at 100 ppm (Rhizoctonia solani): 100%; % controlled, Fu. mo. (Fusarium moniliforme; 50 ppm): 100%; % controlled, Fu. mo. (Fusarium moniliforme; 100 ppm): 100%; inhibition of growth at 50 ppm (Pyricalaria oryzae): 100%; inhibition of growth at 100 ppm (Pyricalaria oryzae): 100%

Question: Which results are given for `C=CC[Si](Cn1cncn1)(C[Si](CC=C)(c1ccc(F)cc1)c1ccc(-c2ccccc2)cc1)c1ccc(F)cc1` (stereo not drawn) [4,6-(4-fluorophenyl)-6-(4-phenylphenyl)-4,6-disila-4-(1H-1,2,4-triazol-1-ylmethyl)-1,8-nonadiene]?
Answer: inhibition of growth at 50 ppm (Glomerella cingulata): 85%; inhibition of growth at 100 ppm (Glomerella cingulata): 87%; inhibition of growth at 50 ppm (Alternaria mali): 62%; inhibition of growth at 100 ppm (Alternaria mali): 65%; inhibition of growth at 50 ppm (Rhizopus sp.): 56%; inhibition of growth at 100 ppm (Rhizopus sp.): 56%; inhibition of growth at 50 ppm [1]: 79%; inhibition of growth at 100 ppm [1]: 79%; inhibition of growth at 50 ppm (Phytophthora capsisi): 75%; inhibition of growth at 100 ppm (Phytophthora capsisi): 75%; inhibition of growth at 50 ppm (Rhizoctonia solani): 90%; inhibition of growth at 100 ppm (Rhizoctonia solani): 96%; % controlled, Fu. mo. (Fusarium moniliforme; 50 ppm): 40%; % controlled, Fu. mo. (Fusarium moniliforme; 100 ppm): 46%; inhibition of growth at 50 ppm (Physalospora baccae): 60%; inhibition of growth at 100 ppm (Physalospora baccae): 65%; inhibition of growth at 50 ppm (Pyricalaria oryzae): 100%; inhibition of growth at 100 ppm (Pyricalaria oryzae): 100%

Question: How did the inhibition of growth at 50 ppm (Glomerella cingulata) turn out when `C[Si](C)(C)C[Si](Cn1cncn1)(c1ccc(F)cc1)c1ccc(F)cc1` [2,2-bis(4-fluorophenyl)-4,4-dimethyl-2,4-disila-1-(1H-1,2,4-triazol-1-yl)pentane] was run?
Answer: 60%

Question: What about the inhibition of growth at 100 ppm (Glomerella cingulata) of the same molecule?
Answer: 67%

Question: And the inhibition of growth at 50 ppm (Alternaria mali)?
Answer: 32%

Question: What about the inhibition of growth at 100 ppm (Alternaria mali) of the same molecule?
Answer: 35%

Question: What about the inhibition of growth at 50 ppm (Rhizopus sp.) of the same molecule?
Answer: 24%

Question: What about the inhibition of growth at 100 ppm (Rhizopus sp.) of the same molecule?
Answer: 29%

Question: What about the inhibition of growth at 50 ppm [1] of the same molecule?
Answer: 31%

Question: And the inhibition of growth at 100 ppm [1]?
Answer: 37%

Question: And the inhibition of growth at 50 ppm (Phytophthora capsisi)?
Answer: 6%

Question: And the inhibition of growth at 100 ppm (Phytophthora capsisi)?
Answer: 6%

Question: What about the inhibition of growth at 50 ppm (Rhizoctonia solani) of the same molecule?
Answer: 60%

Question: What about the inhibition of growth at 100 ppm (Rhizoctonia solani) of the same molecule?
Answer: 67%

Question: And the “% controlled, Fu. mo.” value (Fusarium moniliforme; 50 ppm)?
Answer: 31%

Question: And the “% controlled, Fu. mo.” value (Fusarium moniliforme; 100 ppm)?
Answer: 34%

Question: And the inhibition of growth at 50 ppm (Physalospora baccae)?
Answer: 20%

Question: And the inhibition of growth at 100 ppm (Physalospora baccae)?
Answer: 24%

Question: What about the inhibition of growth at 50 ppm (Pyricalaria oryzae) of the same molecule?
Answer: 57%

Question: And the inhibition of growth at 100 ppm (Pyricalaria oryzae)?
Answer: 61%
